assay: in vitro; conditions: human, hela cells, % viability

| SMILES | viability at 28.5 h, 10 µM [%] |
| --- | --- |
| CN(Cc1ccccc1)Cc1cc(CC2(NCc3ccccc3)COC2)no1 [CBK289645] | 88.9 |
| O=C(N[C@@H](Cn1cc(Cl)c(=O)[nH]c1=O)C(=O)O)C1CC1 [CBK289649] | 88.3 |
| O=C(N[C@@H](Cn1ccc(=O)[nH]c1=O)C(=O)O)C1CCCCC1 [CBK289651] | 85.8 |
| N#Cc1ccc(CNC2(Cc3cc(-c4ccc(F)cc4)on3)COC2)cc1 [CBK289653] | 87.3 |
| Fc1ccc(-c2cc(CC3(NCc4ccc5c(c4)OCO5)COC3)no2)cc1 [CBK289654] | 109 |
| O=C(c1cc(CC2(NCc3ccc(F)cc3)COC2)no1)N1CCCCC1 [CBK289657] | 92.4 |
| O=C(N[C@@H](Cn1cc(Cl)c(=O)[nH]c1=O)C(=O)O)C1CCC1 [CBK289659] | 89.2 |
| Oc1cccc(-c2cc(CC3(NCc4cnc5ccccc5c4)COC3)no2)c1 [CBK289662] | 107 |
| CCc1cn(C[C@H](NC(=O)C2CCCC2)C(=O)O)c(=O)[nH]c1=O [CBK289664] | 106 |
| Cn1ccnc1CN1C(=O)CO[C@H]2CN(Cc3ccc4c(c3)OCO4)C[C@H]21 [CBK289665] | 90 |
| Cc1cn(C[C@H](NC(=O)c2cccc(F)c2)C(=O)O)c(=O)[nH]c1=O [CBK289667] | 109 |
| CCc1cn(C[C@H](NC(=O)c2ccco2)C(=O)O)c(=O)[nH]c1=O [CBK289670] | 86 |
| O=C1COC[C@H]([C@H](O)c2ccc(NC(=O)c3cnccn3)cc2)N1 [CBK289673] | 104 |
| CCNC(=O)N1C[C@@H]2OCC(=O)N(Cc3ccccc3)[C@@H]2C1 [CBK289679] | 104 |
| CCNC(=O)N1C[C@@H]2OCC(=O)N(Cc3cccnc3)[C@@H]2C1 [CBK289682] | 109 |
| CCN1C(=O)COC[C@@H]1[C@H](O)c1ccc(NC(=O)C2CCC2)cc1 [CBK289686] | 85.7 |
| CC(C)CN1C(=O)COC[C@@H]1[C@H](O)c1ccc(NC(=O)C2CCCCC2)cc1 [CBK289687] | 106 |

| SMILES | viability at 28.5 h, 10 µM [%] |
| --- | --- |
| COc1ccccc1C(=O)Nc1ccc([C@@H](O)[C@H]2COCC(=O)N2)cc1 [CBK289688] | 97.3 |
| CS(=O)(=O)c1ccc(CN2C[C@@H]3OCC(=O)N(Cc4ccc(F)cc4)[C@@H]3C2)cc1 [CBK289690] | 119 |
| NC(=O)CN1C(=O)CO[C@H]2CN(Cc3ccccc3F)C[C@H]21 [CBK289693] | 114 |
| CC1(C)[C@H](Cc2cc(COc3ccccc3)on2)C[C@@H]1NC1CCOCC1 [CBK289694] | 96.5 |
| CCN1C(=O)COC[C@@H]1[C@H](O)c1ccc(NC(=O)c2ccco2)cc1 [CBK289695] | 85.3 |
| COc1ccc(-c2cc(CC3(NCc4ccccc4O)COC3)no2)cc1 [CBK289697] | 91.3 |
| O=C(c1ccccn1)N1C[C@@H]2OCC(=O)N(Cc3ccccc3)[C@@H]2C1 [CBK289698] | 84.3 |
| CC(=O)N1CCC(N[C@H]2C[C@@H](Cc3cc(CN4CCCCC4)on3)C2(C)C)CC1 [CBK289699] | 89 |
| COCc1cc(CC2(NCc3ccc(NC(C)=O)cc3)COC2)no1 [CBK289701] | 110 |
| CCCCc1cc(C[C@@H]2C[C@H](NS(C)(=O)=O)C2(C)C)no1 [CBK289702] | 105 |
| CC1(C)[C@H](Cc2cc(COc3ccccc3)on2)C[C@@H]1NS(C)(=O)=O [CBK289703] | 89.5 |
| COCCN1C(=O)CO[C@H]2CN(C(=O)Nc3ccc(F)cc3)C[C@H]21 [CBK289705] | 85.3 |
| Oc1ccc(Cn2ccnc2)c2cccnc12 [CBK291102] | 89.3 |
| Cc1cc(Cn2nnnc2-c2ccncc2)cc(C)c1O [CBK291103] | 104 |
| CC(=O)N1CCc2cc(C(=O)CN3CCOCC3)ccc21 [CBK291105] | 89.2 |
| O=C(CCc1cccnc1)N1CCCCC1c1nc2cc(F)ccc2[nH]1 (stereo not drawn) [CBK291106] | 112 |

Reference: paper PMC12040169 (PLOS Biology, 2025)
